Source: PubChem BioAssay (NCI)
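How tested: cells in 96-well plates exposed to compound for 48 hours at five concentrations. GI50 is the concentration that inhibits growth by half. TGI: total growth inhibition.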

Experiments:
Assay in all cases: inhibition of tumour cell growth, NCI panel, 48 h
[1] = test system: 786-0 renal
[2] = test system: A498 renal
[3] = test system: A549 NSCLC
[4] = test system: ACHN renal
[5] = test system: BT-549 breast
[6] = test system: CAKI-1 renal
[7] = test system: CCRF-CEM leukemia
[8] = test system: COLO 205 colon
[9] = test system: DU-145 prostate
[10] = test system: EKVX NSCLC
[11] = test system: HCC-2998 colon
[12] = test system: HCT-116 colon
[13] = test system: HCT-15 colon
[14] = test system: HL-60(TB) leukemia
[15] = test system: HOP-62 NSCLC
[16] = test system: HOP-92 NSCLC
[17] = test system: HS 578T breast
[18] = test system: HT29 colon
[19] = test system: IGROV1 ovarian
[20] = test system: K-562 leukemia
[21] = test system: KM12 colon
[22] = test system: LOX IMVI melanoma
[23] = test system: M14 melanoma
[24] = test system: MALME-3M melanoma
[25] = test system: MCF7 breast
[26] = test system: MDA-MB-231 breast
[27] = test system: MDA-MB-435
[28] = test system: MOLT-4 leukemia
[29] = test system: NCI-H226 lung
[30] = test system: NCI-H23 lung
[31] = test system: NCI-H460 lung
[32] = test system: NCI-H522 lung
[33] = test system: NCI/ADR-RES ovarian
[34] = test system: OVCAR-3 ovarian
[35] = test system: OVCAR-4 ovarian
[36] = test system: OVCAR-5 ovarian
[37] = test system: OVCAR-8 ovarian
[38] = test system: PC-3 prostate
[39] = test system: RPMI-8226 leukemia
[40] = test system: RXF 393 renal
[41] = test system: SF-268 CNS
[42] = test system: SF-295 CNS
[43] = test system: SF-539 CNS
[44] = test system: SK-MEL-2 melanoma
[45] = test system: SK-MEL-28 melanoma
[46] = test system: SK-MEL-5 melanoma
[47] = test system: SK-OV-3 ovarian
[48] = test system: SN12C renal
[49] = test system: SNB-19 CNS
[50] = test system: SNB-75 CNS
[51] = test system: SR leukemia
[52] = test system: SW-620 colon
[53] = test system: T-47D breast
[54] = test system: TK-10 renal
[55] = test system: U251 CNS
[56] = test system: UACC-257 melanoma
[57] = test system: UACC-62 melanoma
[58] = test system: UO-31 renal
[59] = test system: MDA-N

Question: What does the source list for `Cc1cc(I)cc(CN(C)CCN2CCOCC2)c1O`?
Answer: GI50 [1]: > 100 µM; TGI [1]: > 100 µM; GI50 [2]: 43.3 µM; TGI [2]: > 96.3 µM; GI50 [3]: 54.6 µM; TGI [3]: > 100 µM; GI50 [4]: 60.2 µM; TGI [4]: > 100 µM; GI50 [5]: 43.7 µM; TGI [5]: > 100 µM; GI50 [6]: > 61.4 µM; TGI [6]: > 100 µM; GI50 [7]: 0.87 µM; GI50 [8]: 71.6 µM; TGI [8]: > 100 µM; GI50 [9]: 61 µM; TGI [9]: > 100 µM; GI50 [10]: 47.1 µM; TGI [10]: > 100 µM; GI50 [11]: > 80.8 µM; TGI [11]: > 100 µM; GI50 [12]: 30.4 µM; TGI [12]: > 100 µM; GI50 [13]: 38.8 µM; TGI [13]: > 100 µM; GI50 [14]: 25.8 µM; TGI [14]: 66.6 µM; GI50 [15]: 64.7 µM; TGI [15]: > 100 µM; GI50 [16]: 38 µM; TGI [16]: > 100 µM; GI50 [17]: 23.4 µM; TGI [17]: > 72.5 µM; GI50 [18]: 33.4 µM; TGI [18]: > 100 µM; GI50 [19]: 37.2 µM; TGI [19]: > 100 µM; GI50 [20]: 28.4 µM; TGI [20]: > 100 µM; GI50 [21]: 44.5 µM; TGI [21]: > 100 µM; GI50 [22]: 65 µM; TGI [22]: > 100 µM; GI50 [23]: 79.3 µM; TGI [23]: > 100 µM; GI50 [24]: > 78.8 µM; TGI [24]: > 100 µM; GI50 [25]: 44.1 µM; TGI [25]: > 100 µM; GI50 [26]: 97.9 µM; TGI [26]: > 100 µM; GI50 [27]: 67.3 µM; TGI [27]: > 100 µM; GI50 [28]: 35.7 µM; TGI [28]: > 100 µM; GI50 [29]: > 76.9 µM; TGI [29]: > 100 µM; GI50 [30]: 62.7 µM; TGI [30]: > 100 µM; GI50 [31]: 43.4 µM; TGI [31]: > 100 µM; GI50 [32]: 79 µM; TGI [32]: > 100 µM; GI50 [33]: 59.8 µM; TGI [33]: > 100 µM; GI50 [34]: 49.9 µM; TGI [34]: > 100 µM; GI50 [35]: 53.2 µM; TGI [35]: > 100 µM; GI50 [36]: > 100 µM; TGI [36]: > 100 µM; GI50 [37]: 75.1 µM; TGI [37]: > 100 µM; GI50 [38]: 34.9 µM; TGI [38]: > 100 µM; GI50 [39]: 30.2 µM; TGI [39]: > 100 µM; GI50 [40]: > 88 µM; TGI [40]: > 100 µM; GI50 [41]: 59.5 µM; TGI [41]: > 100 µM; GI50 [42]: 29.8 µM; TGI [42]: > 82.3 µM; GI50 [43]: > 100 µM; TGI [43]: > 100 µM; GI50 [44]: > 100 µM; TGI [44]: > 100 µM; GI50 [45]: > 78.1 µM; TGI [45]: > 100 µM; GI50 [46]: 35.3 µM; TGI [46]: > 85.6 µM; GI50 [47]: > 100 µM; TGI [47]: > 100 µM; GI50 [48]: > 68 µM; TGI [48]: > 100 µM; GI50 [49]: > 87.1 µM; TGI [49]: > 100 µM; GI50 [50]: 53.5 µM; TGI [50]: > 100 µM; GI50 [51]: 12.5 µM; TGI [51]: 97.7 µM; GI50 [52]: 55.2 µM; TGI [52]: > 100 µM; GI50 [53]: 27.5 µM; TGI [53]: > 100 µM; GI50 [54]: > 76.8 µM; TGI [54]: > 100 µM; GI50 [55]: 49.7 µM; TGI [55]: > 100 µM; GI50 [56]: 99.5 µM; TGI [56]: > 100 µM; GI50 [57]: > 66.1 µM; TGI [57]: > 100 µM; GI50 [58]: 45.2 µM; TGI [58]: > 100 µM

Question: Which results are given for `N#C/C(=C\c1cc(Br)c(O)c(Br)c1)c1ccccn1`?
Answer: TGI [1]: > 100 µM; TGI [3]: > 100 µM; TGI [4]: > 100 µM; TGI [5]: > 100 µM; TGI [6]: > 100 µM; TGI [7]: > 100 µM; TGI [8]: > 100 µM; TGI [9]: > 100 µM; TGI [10]: > 100 µM; TGI [11]: > 100 µM; TGI [12]: > 100 µM; TGI [13]: > 100 µM; TGI [14]: > 100 µM; TGI [15]: > 100 µM; TGI [16]: 46.2 µM; TGI [18]: > 100 µM; TGI [19]: > 100 µM; TGI [20]: > 100 µM; TGI [21]: > 100 µM; TGI [23]: > 100 µM; TGI [24]: 68.3 µM; TGI [25]: > 100 µM; TGI [59]: > 100 µM; TGI [28]: > 100 µM; TGI [29]: > 100 µM; TGI [30]: > 100 µM; TGI [31]: > 100 µM; TGI [32]: > 100 µM; TGI [33]: > 100 µM; TGI [34]: > 100 µM; TGI [35]: > 100 µM; TGI [36]: > 100 µM; TGI [37]: > 100 µM; TGI [38]: > 100 µM; TGI [39]: > 100 µM; TGI [40]: > 100 µM; TGI [41]: > 100 µM; TGI [42]: > 100 µM; TGI [43]: > 100 µM; TGI [44]: > 100 µM; TGI [45]: > 100 µM; TGI [46]: > 100 µM; TGI [47]: > 100 µM; TGI [48]: > 100 µM; TGI [49]: > 100 µM; TGI [50]: > 100 µM; TGI [51]: > 100 µM; TGI [52]: > 100 µM; TGI [54]: > 100 µM; TGI [55]: 60 µM; TGI [56]: > 100 µM; TGI [57]: > 100 µM; TGI [58]: > 100 µM
